In PubChem BioAssay AID330 (DTP/NCI, 2004) one finds T/C data, which are given here for 29 compounds.

This experiment relates to P388 leukemia ip, CD2F1 mice, survival T/C. The experiment in a line: NCI In Vivo Anticancer Drug Screen. Data for tumor model P388 Leukemia (intraperitoneal) in CD2F1 (CDF1) mice. Conditions: endpoint: median survival time, higher = longer survival. The procedure, abridged: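 Mice carrying the transplanted tumor received test compound or vehicle. Survival was recorded in each group, and the value is the treated-group measurement divided by that of the vehicle-treated control group.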

The mark [1] stands for this setting: dose: 50.0 mg/kg/injection, schedule: Q01DX009 (ip), vehicle: Klucel (hydroxypropylcellulose) (HPC).
Where [2] appears, read: dose: 100.0 mg/kg/injection, schedule: Q01DX009 (ip), vehicle: Klucel (hydroxypropylcellulose) (HPC).
[3] abbreviates: dose: 200.0 mg/kg/injection, schedule: Q01DX009 (ip), vehicle: Klucel (hydroxypropylcellulose) (HPC).
Where [4] appears, read: dose: 60.0 mg/kg/injection, schedule: Q01DX005 (ip), vehicle: saline.
Setting [5] is: dose: 120.0 mg/kg/injection, schedule: Q01DX005 (ip), vehicle: saline.
Setting [6] is: dose: 240.0 mg/kg/injection, schedule: Q01DX005 (ip), vehicle: saline.
Setting [7] is: dose: 60.0 mg/kg/injection, schedule: Q01DX005 (ip), vehicle: saline with Tween-80.
[8] abbreviates: dose: 120.0 mg/kg/injection, schedule: Q01DX005 (ip), vehicle: saline with Tween-80.
The mark [9] stands for this setting: dose: 100.0 mg/kg/injection, schedule: Q01DX001 (ip), vehicle: Klucel (hydroxypropylcellulose) (HPC).
[10] abbreviates: dose: 200.0 mg/kg/injection, schedule: Q01DX001 (ip), vehicle: Klucel (hydroxypropylcellulose) (HPC).
Setting [11] is: dose: 50.0 mg/kg/injection, schedule: Q01DX005 (ip), vehicle: saline with Tween-80.
[12] abbreviates: dose: 100.0 mg/kg/injection, schedule: Q01DX005 (ip), vehicle: saline with Tween-80.
Where [13] appears, read: dose: 240.0 mg/kg/injection, schedule: Q01DX005 (ip), vehicle: saline with Tween-80.
The mark [14] stands for this setting: dose: 12.5 mg/kg/injection, schedule: Q01DX009 (ip), vehicle: saline with Tween-80.
Setting [15] is: dose: 25.0 mg/kg/injection, schedule: Q01DX009 (ip), vehicle: saline with Tween-80.
Setting [16] is: dose: 50.0 mg/kg/injection, schedule: Q01DX005 (ip), vehicle: Klucel (hydroxypropylcellulose) (HPC).
Where [17] appears, read: dose: 12.5 mg/kg/injection, schedule: Q01DX005 (ip), vehicle: Klucel (hydroxypropylcellulose) (HPC).
The mark [18] stands for this setting: dose: 25.0 mg/kg/injection, schedule: Q01DX005 (ip), vehicle: Klucel (hydroxypropylcellulose) (HPC).
[19] abbreviates: dose: 15.0 mg/kg/injection, schedule: Q01DX005 (ip), vehicle: saline with Tween-80.

Each structure is given as a SMILES string. Several values for one entry are separate records, joined by “and”; a condition that tells them apart may be missing. Equal values may be shown once. Toxic doses and inconclusive results are not listed.

On to `COc1cccc(/C=C2/C(=O)N(Cc3ccco3)SC2=S)c1OC`, for which the T/C is 97 % of control under setting [1], 95 % of control under setting [2] and 92 % of control under setting [3].

As for `Cc1ccc2c(c1)nc1cc3c(cc1n2C1CCCCC1)c(Cl)c(=O)c1ccccc13`, the T/C by setting is: (dose: 50.0 mg/kg/injection, schedule: Q01DX009 (ip), vehicle: saline with Tween-80) 92 % of control; (dose: 100.0 mg/kg/injection, schedule: Q01DX009 (ip), vehicle: saline with Tween-80) 92 % of control; (dose: 200.0 mg/kg/injection, schedule: Q01DX009 (ip), vehicle: saline with Tween-80) 98 % of control.

For the compound `CC1=C/C(=C(\c2ccccc2)c2cc(C)c(O)c(CNCC(=O)O)c2)C=C(CNCC(=O)O)C1=O`, the T/C is, setting by setting: under setting [4], 95 % of control; under setting [5], 103 % of control; under setting [6], 108 % of control.

With `COC(=O)C(=O)c1c(C2CC2)[nH]c2[nH]n(-c3ccccc3)c(=O)c2c1=O`, the T/C runs as follows: under setting [7], 96 % of control; under setting [8], 91 % of control.

As to `COC1C=CCCC1` (stereo not drawn), the T/C was 108 % of control under setting [9]; 117 % of control under setting [10]; 106 % of control (dose: 400.0 mg/kg/injection, schedule: Q01DX001 (ip), vehicle: Klucel (hydroxypropylcellulose) (HPC)).

In the case of `Cc1ccc2c(c1)C(=O)C(CN1CCCCC1)CO2` (stereo not drawn), the T/C is 108 % of control (dose: 100.0 mg/kg/injection, schedule: Q04DX003 (ip), vehicle: saline) and 108 % of control (dose: 200.0 mg/kg/injection, schedule: Q04DX003 (ip), vehicle: saline).

Take `CC1(O)c2ccccc2C(C)(O)c2c1ccc1ccccc21` (stereo not drawn): the T/C by setting is: under setting [11], 95 % of control; under setting [12], 87 % of control.

Take `Clc1ccc(C2=NON(c3ncccn3)C3N=CC=CN23)cc1` (stereo not drawn): the T/C is, setting by setting: under setting [7], 87 % of control; under setting [8], 91 % of control; under setting [13], 99 % of control.

On to `Nc1nc(N)c(-c2cccc(Cl)c2)c(CBr)n1`, for which the T/C by setting is: under setting [14], 113 % of control; under setting [15], 114 % of control.

As to `CNC(=O)OCC1=C([Si](C)(C)C)C(=O)C(OC)=C(OC)C1=O`, the T/C by setting is: under setting [11], 98 % of control; under setting [12], 100 % of control.

For the compound `Cc1cc(=O)oc2c1c(=O)[nH]n2-c1ccccc1`, the T/C runs as follows: under setting [16], 95 % of control; (dose: 100.0 mg/kg/injection, schedule: Q01DX005 (ip), vehicle: Klucel (hydroxypropylcellulose) (HPC)) 87 % of control; (dose: 200.0 mg/kg/injection, schedule: Q01DX005 (ip), vehicle: Klucel (hydroxypropylcellulose) (HPC)) 86 % of control.

Take `Nc1nc(-c2ccccc2N=NN2CCCCC2)nc2ccccc12`: the T/C by setting is: (dose: 12.5 mg/kg/injection, schedule: Q01DX009 (ip), vehicle: Klucel (hydroxypropylcellulose) (HPC)) 111 % of control; (dose: 25.0 mg/kg/injection, schedule: Q01DX009 (ip), vehicle: Klucel (hydroxypropylcellulose) (HPC)) 102 % of control; under setting [1], 104 % of control; under setting [2], 110 % of control and 113 % of control.

Consider `O=C(CC1=NCCN1)c1ccccc1`, for which the T/C by setting is: under setting [1], 100 % of control; under setting [2], 102 % of control; under setting [3], 108 % of control.

Turning to `COCC1(O)C=CC(=O)O1` (stereo not drawn), the T/C (dose: 50.0 mg/kg/injection, schedule: Q01DX005 (ip), vehicle: saline) was 105 % of control.

Consider `O=C(Nc1ccc(Cl)c(C(F)(F)F)c1)Nc1c(Oc2ccc(Cl)c(Cl)c2)ccc(Cl)c1S(=O)(=O)O`, for which the T/C is 118 % of control (dose: 25.0 mg/kg/injection, schedule: Q01DX009 (ip), vehicle: saline); 118 % of control (dose: 50.0 mg/kg/injection, schedule: Q01DX009 (ip), vehicle: saline); 118 % of control (dose: 100.0 mg/kg/injection, schedule: Q01DX009 (ip), vehicle: saline).

For `CSc1ncc(Br)c(Sc2nc(N)nc3nc[nH]c23)n1`, the T/C is 95 % of control under setting [14] and 86 % of control under setting [15].

With `CCOC(=O)C1=C(Nc2ccc(F)cc2)C(=O)N(CC)C1`, the T/C reads like this: under setting [7], 100 % of control; under setting [8], 102 % of control; under setting [13], 93 % of control.

For `Cc1cc2[nH]c(Cl)c(/C=N/Nc3ccccc3[N+](=O)[O-])c2cc1O`, the T/C runs as follows: (dose: 50.0 mg/kg/injection, schedule: Q01DX001 (ip), vehicle: Klucel (hydroxypropylcellulose) (HPC)) 96 % of control; under setting [9], 99 % of control; under setting [10], 90 % of control and 96 % of control.

Take `CC1C2C=CC1C(c1c3ccc(=O)cc-3oc3cc(O)ccc13)C2C(=O)O` (stereo not drawn): the T/C is, setting by setting: under setting [7], 99 % of control; under setting [8], 100 % of control; under setting [13], 101 % of control.

As for `O=[N+]([O-])c1ccc(O)c(/C=N\NS(=O)(=O)c2ccc(F)cc2)c1`, the T/C under setting [11] was 103 % of control and the T/C under setting [12] was 93 % of control.

Take `O=C1c2ccccc2C(=O)N1CCn1[nH]c(=O)c2ccccc2c1=O`: the T/C reads like this: under setting [7], 99 % of control; under setting [8], 90 % of control; under setting [13], 96 % of control.

Consider `COc1ccc2c(c1)C=C([N+](=O)[O-])C(N1CCOCC1)O2` (stereo not drawn), for which the T/C by setting is: under setting [17], 106 % of control; under setting [18], 108 % of control; under setting [16], 101 % of control and 109 % of control.

Turning to `O=C1C(=O)N(c2ccccc2)C(=O)N1CCN1C(=O)C(=O)N(c2ccccc2)C1=O`, the T/C (dose: 3.75 mg/kg/injection, schedule: Q01DX005 (ip), vehicle: saline with Tween-80) is 100 % of control; the T/C (dose: 7.5 mg/kg/injection, schedule: Q01DX005 (ip), vehicle: saline with Tween-80) is 90 % of control; the T/C under setting [19] was 95 % of control.

Turning to `O=C(c1ccc(OCC(O)CN2CCN(c3ccccc3)CC2)cc1)c1cc2ccccc2c2ccccc12` (stereo not drawn), the T/C is 106 % of control (dose: 100.0 mg/kg/injection, schedule: Q04DX003 (ip), vehicle: alcohol); 109 % of control (dose: 100.0 mg/kg/injection, schedule: Q04DX003 (ip), vehicle: other); 120 % of control (dose: 200.0 mg/kg/injection, schedule: Q04DX003 (ip), vehicle: alcohol); 105 % of control (dose: 200.0 mg/kg/injection, schedule: Q04DX003 (ip), vehicle: other).

Turning to `CN(C)c1ccc(C(=C(c2ccc(N(C)C)cc2)c2ccc(N(C)C)cc2)c2ccc(N(C)C)cc2)cc1`, the T/C (dose: 12.5 mg/kg/injection, schedule: Q01DX005 (ip), vehicle: saline with Tween-80) was 96 % of control; the T/C (dose: 25.0 mg/kg/injection, schedule: Q01DX005 (ip), vehicle: saline with Tween-80) was 92 % of control; the T/C under setting [11] is 89 % of control.

As for `COc1cccc2c1C(=O)c1c(O)c3c(c(O)c1C2=O)CC(O)(c1cscn1)CC3O` (stereo not drawn), the T/C is, setting by setting: (dose: 1.56 mg/kg/injection, schedule: Q01DX009 (ip), vehicle: other) 104 % of control; (dose: 3.13 mg/kg/injection, schedule: Q01DX009 (ip), vehicle: other) 107 % of control; (dose: 6.25 mg/kg/injection, schedule: Q01DX009 (ip), vehicle: other) 101 % of control; (dose: 12.5 mg/kg/injection, schedule: Q01DX009 (ip), vehicle: other) 105 % of control; (dose: 25.0 mg/kg/injection, schedule: Q01DX009 (ip), vehicle: other) 104 % of control; (dose: 50.0 mg/kg/injection, schedule: Q01DX009 (ip), vehicle: other) 113 % of control.

As for `CCN(CC)CCN(C(=O)C1c2ccccc2Oc2ccccc21)c1ccccc1`, the T/C runs as follows: under setting [17], 106 % of control; under setting [18], 100 % of control; under setting [16], 100 % of control and 94 % of control.

Take `CCOC(=O)N1C=CC(CC(=O)N(CC)CC)C=C1` (tested in a mixture with another compound): the T/C runs as follows: under setting [4], 102 % of control; under setting [5], 96 % of control; under setting [6], 108 % of control.

`[N-]=[N+]=NCC(O)COc1c2ccccc2nc2ccccc12` (stereo not drawn): the T/C is 95 % of control under setting [19]; 99 % of control (dose: 30.0 mg/kg/injection, schedule: Q01DX005 (ip), vehicle: saline with Tween-80); 112 % of control under setting [7].
